Reference: PMC8395886, “Square-Planar vs. Trigonal Bipyramidal Geometry in Pt(II) Complexes Containing Triazole-Based Glucose Ligands as Potential Anticancer Agents” (International Journal of Molecular Sciences, 2021)
Read-outs that look alike come from different tables or passages of the source.

Experiments:
[1] = test system: A431 (epidermoid carcinoma cells); assay: MTT cytotoxicity assay on A431 cells; type: cell-based, human; conditions: for IC50: 48 h incubation; for Selectivity Index H9c2/A431 / Selectivity Index HaCaT/A431: IC50 immortalized cells/IC50 cancer cells
Protocol: (§7) A431, H9c2, and MCF7 cells were purchased from American Type Culture Collection (ATCC). HaCaT cells were from Innoprot (Derio, Spain). Cells were cultured in DMEM (Sigma-Aldrich, St. Louis, MO, USA), supplemented with 10% fetal bovine serum (HyClone, Thermo Scientific, Logan, UT, USA) and antibiotics in a 5% CO2 humidified atmosphere at 37 °C. The growth medium of H9c2 cells was implemented with 2 mM L-glutamine and 2 mM sodium pyruvate. Cells were seeded in 96-well plates at a density of 2.5 × 10^3 cells per well. Different drugs were added at increasing concentrations 24 h after seeding for dose-dependent assays. […] After 48 h incubation, cell viability was assessed by MTT assay, as described in a previous study [30]. Control experiments were performed by either growing cells in the absence of the compound or by supplementing the cell cultures with identical volumes of buffer (water:acetone, 1:1 v/v). Each value is the mean of three independent experiments, each with three determinations. Significance was determined by Student’s t-test.

[2] = test system: MCF-7 (breast cancer cells); assay: MTT cytotoxicity assay on MCF7 cells; type: cell-based, human; conditions: for IC50: 48 h incubation; for Selectivity Index H9c2/MCF7 / Selectivity Index HaCaT/MCF7: IC50 immortalized cells/IC50 cancer cells
Protocol: as §7

[3] = In-solution stability by 1H-NMR over time; type: physicochemical
Protocol: To compare the solution stability of the complexes, ^1H-NMR and UV–vis spectra over time were recorded for 4Pt type species dissolved in diverse aqueous (phosphate buffer, PB; pH 7.4): organic solvent mixtures, i.e., 1:1 v/v D2O:acetone-d6; 9:1 v/v PB:DMSO-d6; 1:1 v/v PB:DMSO-d6 and DMSO-d6. These solvents were selected to verify the stability in pseudo-physiological conditions in the presence of solvents with different coordinating properties and concentrations.
The appropriate 4Pt complex (5 mg) was dissolved in 0.5 mL of DMSO-d6 or acetone-d6. Calculated volumes of solution were diluted to 600 µL with the appropriate volumes of PB in D2O (25 mM, pH 7.4) and/or DMSO-d6 to provide a 1 mM solution of the complex with the appropriate v/v ratio of solvents. Samples were incubated at 37 °C, and NMR spectra were recorded at different times.

[4] = test system: H9c2 (rat cardiomyoblast cells); assay: MTT cytotoxicity assay on H9c2 cells; type: cell-based; conditions: 48 h incubation
Protocol: as §7

[5] = test system: HaCaT (human keratinocyte cells); assay: MTT cytotoxicity assay on HaCaT cells; type: cell-based; conditions: 48 h incubation
Protocol: as §7

[6] = test system: MCF-7, A431, H9c2 and HaCaT cells; assay: MTT assay, all the analyzed cell lines (statement in words); type: cell-based; conditions: 48 h
Protocol: The biological effect of the Pt-compounds was tested on two human tumor cell lines, MCF-7 (breast cancer cells) and A431 (epidermoid carcinoma cells), and two non-tumorigenic cell lines, H9c2 (rat cardiomyoblast cells), and HaCaT (human keratinocyte cells), using the MTT assay. […] Indeed, due to their inertness towards the substitution of the sugar ligand, their biological activity can be influenced by the nature of the sugar ligand, whose presence in the complex can affect its internalization or mechanism of action once inside the cell. On the other hand, in the case of the five-coordinate complexes, the loss of the sugar tag plausibly determines their substantial leveling of activities. […] The behavior of 4Pt-im was very similar to that of 4Pt-py.
(§1) A431, H9c2, and MCF7 cells were purchased from American Type Culture Collection (ATCC). HaCaT cells were from Innoprot (Derio, Spain). Cells were cultured in DMEM (Sigma-Aldrich, St. Louis, MO, USA), supplemented with 10% fetal bovine serum (HyClone, Thermo Scientific, Logan, UT, USA) and antibiotics in a 5% CO2 humidified atmosphere at 37 °C. The growth medium of H9c2 cells was implemented with 2 mM L-glutamine and 2 mM sodium pyruvate. […] After 48 h incubation, cell viability was assessed by MTT assay, as described in a previous study. […] Significance was determined by Student’s t-test.

[7] = test system: A431 (epidermoid carcinoma cells); conditions: 48 h incubation; read-out: MTT IC50 48 h, A431; cited from earlier work
[8] = test system: HaCaT (human keratinocyte cells); conditions: 48 h incubation; read-out: MTT IC50 48 h, HaCaT; cited from earlier work
A431 cells [9] = assay: GLUT1-inhibitor-mediated cytotoxicity assay (quercetin, MTT); type: cell-based, human
Protocol: (§2) The cell death mechanism induced by 4Pt-py was analyzed on A431 cells. First, the internalization process of 4Pt-py was evaluated by studying the involvement of GLUT receptors. In particular, 4Pt-py internalization and cytotoxicity were tested using quercetin as a glucose transporter inhibitor [24, 30, 42]. […] The 10 µM concentration used was very similar to the IC50 value, and then, a double value (20 µM) was also used to definitely exclude necrosis at very high concentrations.
as §1
(§3) Figure 8 Analysis of the mechanism of action of 4Pt-py. […] Cell viability was assessed using the MTT assay after 48 h incubation. […] (B) Cells were incubated with increasing amounts of 4Pt-py for 48 h, and the release of LDH was measured. […] The % of LDH release was calculated as described in the Materials and Methods section.

A431 cells [10] = conditions: IC50 value (12 µM) and 20 µM, 48 h
Protocol: (§4) The activation of the apoptotic pathway was analyzed by Western blotting and an analysis of the mitochondrial potential as it is well known that mitochondrial outer membrane permeabilization is essential to initiate mitochondrial apoptosis.
Each value is the mean of three independent experiments, each with three determinations. Significance was determined by Student’s t-test.
(§5) A431 cells were incubated with 12 μM of 4Pt-py for 48 h. (A,B) Analysis by Western blotting of pro-caspase-3 and -9. Β-actin or GAPDH was used as the loading control.

A431 cells [11] = assay: LDH release (necrosis); type: cell-based, human; conditions: 10 and 20 µM, 48 h
Protocol: as §2
The occurrence of necrosis was determined by measuring the release of lactate dehydrogenase (LDH) in the culture medium, as described by Sucha et al.. The LDH content of the medium from untreated cells was referred to as a spontaneous release, whereas the LDH total cellular content was determined upon cell lysis. The percentage of LDH release was calculated as:(1) LDH release % = [experimental−spontaneus release/total content−spontaneous release]×100
as §3, with “4Pt-py. (A) Glucose-transporter-dependent cytotoxicity of 4Pt-py on A431 cells.” for “4Pt-py.”

procaspase-9 = conditions: A431 cells, 12 μM, 48 h
Protocol: as §4
(§6) A431 cells were plated at a density of 3 × 10^5 cells cm^−2 in a complete medium for 24 h and then treated for 48 h with 12 µM 4Pt-py. At the end of the incubation, both untreated and treated cells were analyzed, as described previously for Western blot analyses. Upon the determination of total protein concentration in the supernatant by the Bradford assay, samples were analyzed by SDS-PAGE and Western blot using specific antibodies directed towards procaspase-3 or -9 (Cell Signal Technology, Danvers, MA, USA). β-actin (Sigma-Aldrich) or GAPDH (Thermo Fisher, Rockford, IL, USA) was used as the loading control. Each value is the mean of three independent experiments, each with three determinations. Significance was determined by Student’s t-test.
as §5

procaspase-3 = conditions: A431 cells, 12 μM, 48 h
Protocol: as §4, §6, §5

CC(=O)OC[C@H]1O[C@@H](n2cc(-c3c[n+]([Pt-2]4([CH3])[n+]5cccc6ccc7ccc[n+]4c7c65)cn3C)nn2)[C@H](OC(C)=O)[C@@H](OC(C)=O)[C@@H]1OC(C)=O.O=S(=O)([O-])C(F)(F)F [4Pt-im]
IC50 [1]: 16 ± 8 µM
Selectivity Index H9c2/A431 [1]: 3.3
Selectivity Index HaCaT/A431 [1]: 1.69
IC50 [2]: 43 ± 7 µM
Selectivity Index H9c2/MCF7 [2]: 1.23
Selectivity Index HaCaT/MCF7 [2]: 0.63
Structural variations in solution (1H-NMR) ([3]; 1:1 v/v D2O:acetone-d6, over 3 days): No appreciable structural variations
IC50 [4]: 53 ± 11 µM
IC50 [5]: 27 ± 7 µM

Cn1c[n+]([Pt-2]2([CH3])[n+]3cccc4ccc5ccc[n+]2c5c43)cc1-c1cn([C@@H]2O[C@H](CO)[C@@H](O)[C@H](O)[C@H]2O)nn1.O=S(=O)([O-])C(F)(F)F [4Pt-imdep]
Toxic activity (in words) [6]: No toxic activity was observed
IC50 [1]: > 200 µM
IC50 [2]: > 200 µM
IC50 [4]: > 200 µM
IC50 [5]: > 200 µM

N.N.[Cl][Pt][Cl] [Cisplatin, reference compound]
Selectivity Index H9c2/A431 [1]: 0.2
Selectivity Index HaCaT/A431 [1]: 0.17
IC50 [7]: 39 ± 12 µM
IC50 [2]: 18 ± 1.6 µM
Selectivity Index H9c2/MCF7 [2]: 0.44
IC50 [8]: 6.6 ± 0.3 µM
IC50 [4]: 8 ± 2.1 µM

CC(=O)OC[C@H]1O[C@@H](n2cc(-c3ccc[n+]([Pt-2]4([CH3])[n+]5cccc6ccc7ccc[n+]4c7c65)c3)nn2)[C@H](OC(C)=O)[C@@H](OC(C)=O)[C@@H]1OC(C)=O.O=S(=O)([O-])C(F)(F)F [4Pt-py]
Inhibition of cytotoxicity by glucose transporter inhibitor quercetin (A431 cells [9]; A431 cells, 0.5–200 μM compound ± 5 μM quercetin, 48 h): no inhibition of cytotoxicity was observed in the presence of quercetin
IC50 [1]: 12 ± 2 µM
Selectivity Index H9c2/A431 [1]: 1.83
Selectivity Index HaCaT/A431 [1]: 5.5
IC50 [2]: 35 ± 4 µM
Selectivity Index H9c2/MCF7 [2]: 0.63
Selectivity Index HaCaT/MCF7 [2]: 1.88
Mitochondrial potential (Δψm) (A431 cells [10]): significant decrease
Time to equilibrium of sugar ligand/DMSO exchange ([3]; 1:1 v/v PB:DMSO-d6, 37 °C): 24 h
LDH release (A431 cells [11]): no LDH release was observed
IC50 [4]: 22 ± 10 µM
Pro-caspase-9 signal (procaspase-9): small but significant decrease
Pro-caspase-3 signal (procaspase-3): small but significant decrease
IC50 [5]: 66 ± 11 µM

O=c1c(O)c(-c2ccc(O)c(O)c2)oc2cc(O)cc(O)c12 [quercetin, reference compound]
Lethality of quercetin alone (A431 cells [9]; 5 μM, data not shown): non-lethal concentration
